The target of test [1] is Phosphatidylinositol 4-phosphate 3-kinase C2 domain-containing subunit beta (Homo sapiens, UniProt O00750). The test can be described thus: Inhibition of human PI3KC2beta by non-radiometric ADP-Glo assay.
The target in test [2] is Phosphatidylinositol 4-phosphate 3-kinase C2 domain-containing subunit alpha (Homo sapiens, UniProt O00443). The test can be described thus: Inhibition of human PI3KC2alpha by non-radiometric ADP-Glo assay.
Test [3] concerns the target DNA-dependent protein kinase catalytic subunit (Homo sapiens, UniProt P78527). The test can be described thus: Inhibition of human DNA-PK by non-radiometric ADP-Glo assay.
Test [4] can be described thus: Inhibition of human class 1 PI3K by non-radiometric ADP-Glo assay.
Test [5] in a line: Inhibition of human class 4 PI3K by non-radiometric ADP-Glo assay.
The target of test [6] is Serine/threonine-protein kinase mTOR (Homo sapiens, UniProt P42345). The test can be described thus: Inhibition of human mTOR by non-radiometric ADP-Glo assay.

DNA-dependent protein kinase catalytic subunit, sequence (P78527 whole entry): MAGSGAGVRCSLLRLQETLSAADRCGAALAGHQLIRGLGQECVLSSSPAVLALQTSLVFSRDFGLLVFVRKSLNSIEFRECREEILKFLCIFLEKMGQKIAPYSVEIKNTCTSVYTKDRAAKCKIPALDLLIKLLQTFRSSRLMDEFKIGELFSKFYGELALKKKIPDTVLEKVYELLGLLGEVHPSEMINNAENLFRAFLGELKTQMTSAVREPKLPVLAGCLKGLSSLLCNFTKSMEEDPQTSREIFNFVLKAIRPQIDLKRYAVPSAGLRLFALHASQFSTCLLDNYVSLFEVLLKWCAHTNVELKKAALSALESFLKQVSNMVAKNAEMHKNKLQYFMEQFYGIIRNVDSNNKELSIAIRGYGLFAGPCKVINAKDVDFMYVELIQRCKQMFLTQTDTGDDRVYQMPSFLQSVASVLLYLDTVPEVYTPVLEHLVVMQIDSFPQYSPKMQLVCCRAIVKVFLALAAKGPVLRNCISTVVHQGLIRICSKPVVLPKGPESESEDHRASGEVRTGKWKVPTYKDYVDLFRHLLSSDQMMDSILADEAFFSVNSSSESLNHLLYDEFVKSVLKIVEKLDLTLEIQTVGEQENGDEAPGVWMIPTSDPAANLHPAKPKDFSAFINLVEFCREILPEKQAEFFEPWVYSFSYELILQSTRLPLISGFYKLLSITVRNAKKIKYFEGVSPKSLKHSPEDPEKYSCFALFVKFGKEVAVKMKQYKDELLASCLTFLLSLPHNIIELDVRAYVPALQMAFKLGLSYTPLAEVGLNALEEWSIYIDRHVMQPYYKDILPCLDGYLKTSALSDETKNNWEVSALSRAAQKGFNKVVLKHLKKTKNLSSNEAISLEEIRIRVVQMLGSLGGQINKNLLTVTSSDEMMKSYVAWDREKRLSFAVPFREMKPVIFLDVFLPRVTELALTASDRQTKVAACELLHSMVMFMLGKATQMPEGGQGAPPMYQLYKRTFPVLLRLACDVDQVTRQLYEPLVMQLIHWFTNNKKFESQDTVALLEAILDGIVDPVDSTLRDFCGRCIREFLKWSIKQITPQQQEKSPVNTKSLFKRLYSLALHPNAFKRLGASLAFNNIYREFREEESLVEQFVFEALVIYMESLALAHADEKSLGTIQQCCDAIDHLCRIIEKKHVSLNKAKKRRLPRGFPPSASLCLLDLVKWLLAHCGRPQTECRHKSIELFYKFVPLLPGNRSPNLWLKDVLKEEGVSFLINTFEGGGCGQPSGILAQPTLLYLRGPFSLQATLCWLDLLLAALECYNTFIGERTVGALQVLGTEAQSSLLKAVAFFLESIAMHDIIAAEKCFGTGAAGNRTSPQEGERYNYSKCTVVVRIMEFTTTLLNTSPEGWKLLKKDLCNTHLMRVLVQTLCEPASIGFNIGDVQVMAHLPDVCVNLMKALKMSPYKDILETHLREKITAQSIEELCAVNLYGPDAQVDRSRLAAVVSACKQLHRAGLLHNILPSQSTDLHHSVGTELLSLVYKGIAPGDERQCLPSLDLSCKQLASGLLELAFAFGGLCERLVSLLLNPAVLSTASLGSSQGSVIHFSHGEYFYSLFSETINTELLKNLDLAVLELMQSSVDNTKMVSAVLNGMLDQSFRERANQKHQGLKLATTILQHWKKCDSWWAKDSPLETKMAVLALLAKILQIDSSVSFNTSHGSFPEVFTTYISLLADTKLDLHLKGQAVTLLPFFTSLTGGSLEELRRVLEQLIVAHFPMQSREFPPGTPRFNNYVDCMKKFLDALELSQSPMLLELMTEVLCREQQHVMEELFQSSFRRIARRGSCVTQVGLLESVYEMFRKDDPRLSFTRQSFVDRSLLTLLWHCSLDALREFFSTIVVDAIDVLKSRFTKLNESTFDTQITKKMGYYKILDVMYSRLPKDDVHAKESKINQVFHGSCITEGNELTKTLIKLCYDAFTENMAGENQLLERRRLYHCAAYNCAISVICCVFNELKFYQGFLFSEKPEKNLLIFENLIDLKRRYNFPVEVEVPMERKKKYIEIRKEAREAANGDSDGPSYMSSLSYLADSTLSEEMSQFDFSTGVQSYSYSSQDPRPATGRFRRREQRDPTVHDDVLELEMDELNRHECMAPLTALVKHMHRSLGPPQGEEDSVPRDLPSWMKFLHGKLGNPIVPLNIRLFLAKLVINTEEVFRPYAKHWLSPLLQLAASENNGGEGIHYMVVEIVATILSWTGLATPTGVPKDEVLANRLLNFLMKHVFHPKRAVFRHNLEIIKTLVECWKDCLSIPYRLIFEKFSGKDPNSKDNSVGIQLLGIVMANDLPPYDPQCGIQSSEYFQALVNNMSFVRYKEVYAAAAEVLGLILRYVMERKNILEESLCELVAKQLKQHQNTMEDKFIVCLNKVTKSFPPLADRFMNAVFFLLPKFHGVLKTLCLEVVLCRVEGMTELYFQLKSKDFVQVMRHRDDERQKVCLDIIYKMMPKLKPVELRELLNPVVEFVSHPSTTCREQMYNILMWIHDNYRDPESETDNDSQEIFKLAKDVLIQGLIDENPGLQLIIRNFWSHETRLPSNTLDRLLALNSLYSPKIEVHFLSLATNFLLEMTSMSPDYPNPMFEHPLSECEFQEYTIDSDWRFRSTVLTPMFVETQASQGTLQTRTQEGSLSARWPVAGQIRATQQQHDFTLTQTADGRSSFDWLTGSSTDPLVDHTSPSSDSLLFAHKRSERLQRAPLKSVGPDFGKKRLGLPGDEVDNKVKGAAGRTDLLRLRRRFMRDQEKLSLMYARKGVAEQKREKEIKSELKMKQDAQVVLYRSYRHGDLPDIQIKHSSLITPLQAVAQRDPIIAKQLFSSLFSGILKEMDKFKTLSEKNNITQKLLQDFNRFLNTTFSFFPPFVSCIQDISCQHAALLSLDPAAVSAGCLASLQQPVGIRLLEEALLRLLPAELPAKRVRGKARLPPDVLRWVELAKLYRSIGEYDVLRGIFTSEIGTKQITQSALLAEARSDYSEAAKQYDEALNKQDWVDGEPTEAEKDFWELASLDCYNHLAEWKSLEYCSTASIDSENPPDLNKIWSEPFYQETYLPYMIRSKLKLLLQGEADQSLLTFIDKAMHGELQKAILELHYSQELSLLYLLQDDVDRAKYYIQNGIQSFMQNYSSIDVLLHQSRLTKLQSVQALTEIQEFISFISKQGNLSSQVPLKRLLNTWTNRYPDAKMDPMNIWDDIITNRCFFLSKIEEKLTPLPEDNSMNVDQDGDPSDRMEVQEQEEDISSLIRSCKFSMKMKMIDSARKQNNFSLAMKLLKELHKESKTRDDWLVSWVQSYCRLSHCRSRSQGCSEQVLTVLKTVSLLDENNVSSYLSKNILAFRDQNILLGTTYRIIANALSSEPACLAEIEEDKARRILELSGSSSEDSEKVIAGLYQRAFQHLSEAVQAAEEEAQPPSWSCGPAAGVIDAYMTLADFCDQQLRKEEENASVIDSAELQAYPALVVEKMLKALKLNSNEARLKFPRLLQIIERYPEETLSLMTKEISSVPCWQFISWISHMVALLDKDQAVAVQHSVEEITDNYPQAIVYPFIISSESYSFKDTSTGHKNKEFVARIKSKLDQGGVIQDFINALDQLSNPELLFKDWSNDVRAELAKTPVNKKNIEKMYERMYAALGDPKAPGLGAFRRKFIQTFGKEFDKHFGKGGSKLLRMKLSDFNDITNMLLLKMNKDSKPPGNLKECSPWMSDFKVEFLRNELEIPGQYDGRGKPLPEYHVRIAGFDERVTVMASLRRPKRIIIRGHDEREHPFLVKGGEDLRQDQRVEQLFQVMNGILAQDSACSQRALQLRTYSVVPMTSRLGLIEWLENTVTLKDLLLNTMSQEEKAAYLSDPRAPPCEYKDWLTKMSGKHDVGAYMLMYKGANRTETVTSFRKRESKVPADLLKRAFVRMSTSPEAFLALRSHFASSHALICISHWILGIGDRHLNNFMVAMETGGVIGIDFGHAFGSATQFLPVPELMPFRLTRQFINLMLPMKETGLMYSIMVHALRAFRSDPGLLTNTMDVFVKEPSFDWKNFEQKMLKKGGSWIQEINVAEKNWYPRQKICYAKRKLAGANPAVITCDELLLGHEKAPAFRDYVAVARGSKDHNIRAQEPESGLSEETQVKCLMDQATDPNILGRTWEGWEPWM

For the compound `CC(=O)Nc1nc(C)c(-c2ccc(Cl)c(S(=O)(=O)NCCO)c2)s1`, the 50% inhibitory concentration (IC50) came to 140 nM in test [1], 16000 nM in test [2] and 64 nM in test [3].
In the same order, the values of `COc1ccc2c(c1OC)N=C(NC(=O)c1cccnc1)N1CCN=C21` are 64 nM, 47 nM and 13 nM.
The matching figures for `O=C1NC(=S)S/C1=C/c1ccc2c(c1)N(Cc1ccc(F)c(Cl)c1)C(=O)CO2`: 370 nM, 140 nM and 1500 nM.
With `CC(=O)Nc1ccc2nc(-c3cccc(NS(=O)(=O)c4cccc5ccccc45)c3)nc(N3CCOCC3)c2c1`, the results for the half-inhibitory concentration (IC50) in test [1], in test [4] and in test [5] were 530 nM, above 10000 nM and above 100000 nM, respectively.
In the same order, the values of `CC(=O)Nc1ccc2nc(-c3cccc(NS(=O)(=O)c4ccccc4)c3)nc(N3CCOCC3)c2c1` are 630 nM, above 10000 nM and above 100000 nM.
The compound `CC[C@H](Nc1ncnc2[nH]cnc12)c1nc2cccc(F)c2c(=O)n1-c1ccccc1` [IDELALISIB] came in with an IC50 in test [1] above 1000 nM.
For the compound `O=c1cc(N2CCOCC2)oc2c(-c3ccccc3)cccc12` [LY-294002], the IC50 in test [1] was found to be 10400 nM; in test [2] it was 27000 nM; in test [6], 3900 nM.
In the case of `Oc1cccc(-c2nc(N3CCOCC3)c3oc4ncccc4c3n2)c1` [PI-103], in test [2], half-maximal inhibition (IC50) required 1000 nM.
Still for that read-out and setting: with `CS(=O)(=O)N1CCN(Cc2cc3nc(-c4cccc5[nH]ncc45)nc(N4CCOCC4)c3s2)CC1` [PICTILISIB] the figure was above 100000 nM.
For the compound `FC(F)c1nc2ccccc2n1-c1nc(N2CCOCC2)nc(N2CCOCC2)n1` [ZSTK-474], the IC50 is 180 nM in test [1], above 100000 nM in test [2] and 370 nM in test [6].

Values taken from ChEMBL document CHEMBL3352433, “Class II but Not Second Class-Prospects for the Development of Class II PI3K Inhibitors” (ACS Med Chem Lett, 2015).
